Results taken from article PMC12164026, “Plant-derived nodule-specific cysteine-rich peptides as potent antifungal agents against Cryptococcus neoformans: mechanisms of action, chimeric peptide enhancement, and immunomodulatory effects” (Current Research in Microbial Sciences, 2025).
Converted amounts (≈) assume the structure as drawn. Where two headings read alike, the source gives them in different places. Peptide text beside a SMILES is read from it.

What was measured:
[1] = tested on: J774.2 mouse macrophage cells; test: Cytotoxicity, MTT assay; type: cell-based; conditions: 25 µM, 3 h, X-VIVO medium; for reduction in macrophage viability: relative to untreated control
Procedure: J774.2 cells were cultured as described previously and seeded into microtiter plates at a density of 5 × 10⁴ cells per well. The cells were incubated at 37 °C under 5 % CO₂ and 95 % relative humidity in X-VIVO™ medium until they adhered to the plate surface. Following attachment, cells were treated with peptides at their respective MIC concentrations in X-VIVO medium for 3 h under the same incubation conditions.
After peptide treatment, cells were washed with PBS (phosphate-buffered saline) and incubated in X-VIVO™ medium supplemented with 0.5 mg/mL MTT reagent (3-[4,5-dimethylthiazol-2-yl]−2,5-diphenyltetrazolium bromide, Merck KGaA, Darmstadt, Germany). The MTT assay was used to evaluate cell viability by staining live cells, leading to the formation of formazan crystals. These crystals were dissolved in dimethyl sulfoxide (DMSO), and absorbance was measured at 570 nm using a SPECTROstar Nano plate reader (BMG LabTech, Offenburg, Germany). The absorbance of untreated control cells was set as 100 % viability, and experimental results were expressed relative to this control. Each experiment was conducted in at least three independent biological replicates to ensure statistical reliability.

[2] = tested on: Cryptococcus neoformans IFM 5844; test: Minimal fungicidal concentration (MFC) determination, spotting on YPD; type: cell-based; conditions: cultures from MIC assays diluted and spotted onto solid YPD, 30 °C, 48 h
Procedure: Minimal fungicidal concentration (MFC) determination. To assess fungicidal activity, both control and peptide-treated cultures from the MIC assays were diluted 10-fold and 100-fold in sterile distilled water. Five µL from each dilution was then spotted onto solid YPD medium (1 % pepton, 1 % dextrose, 0.5 % yeast extract, 2 % agar). The plates were incubated at 30 °C for 48 h and fungal growth was evaluated. MFC was defined as the lowest peptide concentration at which no visible fungal growth was detected, indicating complete fungicidal activity.

[3] = tested on: C. neoformans IFM 5844 cells; test: Cell membrane permeability, calcein-AM assay by flow cytometry; type: cell-based, Cryptococcus neoformans; conditions: half-MIC, 2 h, 30 °C, YNB
Procedure: The effect of the peptides on the cell membrane permeability of C. neoformans IFM 5844 cells was checked by flow cytometry with calcein-AM assay ([Olson, et al., 2001]). Calcein-acetoxymethyl ester (calcein-AM) is a membrane-permeable live-cell dye that, upon entering the cell, is cleaved by intracellular esterases, converting it into calcein, a membrane-impermeable fluorescent marker. The assay was carried out by suspending a total of 1 × 10^7 cells in 100 µl YNB medium containing 20 µg/mL indomethacin (Sigma-Aldrich, Saint Louis, MO, USA) and incubating them at 30 °C for 30 min to inhibit calcein transporters. Following this pre-treatment, membrane-permeable calcein-AM (Invitrogen, Waltham, MA, USA) was added to a final concentration of 5 µg/mL, and the samples were incubated at 30 °C for 3 h allowing the calcein-AM to enter the cells where esterases converted it to fluorescent calcein. After incubation, cells were washed twice with sterile distilled water and subsequently exposed to peptides at half-MIC concentrations in YNB medium for 2 h at 30 °C. Following peptide treatment, cells were washed twice with sterile distilled water, and fluorescence intensity was measured using a FlowSight® flow cytometer (Amnis-EMD Millipore) equipped with a 488-nm excitation laser. Intact cells stained with calcein-AM but not exposed to peptides served as controls. To ensure statistical reliability, four independent experiments were conducted, and fluorescence intensity was recorded from 10,000 cells per sample during each experiment.

[4] = tested on: Cryptococcus neoformans IFM 5844; test: microbe, parasite or virus in culture; type: cell-based; conditions: five-fold diluted YNB + 1 % dextrose, 5 × 10^4 cells/mL, 30 °C, 72 h, OD 620 nm, ≥ 90 % growth inhibition, tested 25 to 0.39 µM, three biological replicates; read-out: MIC
Procedure: (§1) The susceptibility of Cryptococcus neoformans IFM 5844 to 20 peptides (Supplementary Table 1) was tested in a widely used synthetic medium to cultivate yeasts (YNB) and in a serum-free medium what is able to support the proliferation of macrophage cells (X-VIVO).
YNB medium: five-fold diluted Difco Yeast Nitrogen Base w/o Amino Acids medium (Becton, Dickinson and Company, Sparks, MD, USA) supplemented with 1 % dextrose
(§2) The minimal inhibitory concentration (MIC) of each peptide was determined by using micro-dilution assay. The C. neoformans suspensions were adjusted to 5 × 10^4 cells/mL concentration in either YNB or X-VIVO medium. A 96-well microtiter plate was prepared by adding 95 µL suspension per well followed by 5 µL of serially two-fold diluted peptide solutions achieving a final volume of 100 µl. The concentration of the peptides ranged from 25 to 0.39 µM. For control samples, 5 µL pure medium was added to the yeast cell suspension instead of peptides. Plates were incubated at 37 °C for 48 h in X-VIVO medium and 30 °C for 72 h in YNB medium. After incubation, optical density was measured at 620 nm using a SPECTROstar Nano plate reader (BMG LabTech, Offenburg, Germany). […] The experiments were carried out in three independent biological replicates.

[5] = tested on: Cryptococcus neoformans IFM 5844; type: cell-based; conditions: half-diluted X-VIVO 15 medium, 37 °C, 48 h, OD 620 nm, ≥ 90 % growth inhibition, tested 25 to 0.39 µM, three biological replicates
Procedure: as §1
X-VIVO medium: half-diluted X-VIVO™ 15 cell culture medium (Lonza, Verviers, Belgium).
as §2

C. neoformans cells = test: Effect of X1-NCR247C and calcofluor white on CFU; type: cell-based, Cryptococcus neoformans; conditions: calcofluor white 2.5 µg/mL alone, 20 min
Procedure: To assess the effect of X1-NCR247C peptide and calcofluor white, C. neoformans cells were subjected to different treatments. […] For staining, cells were treated with calcofluor white at 2.5 µg/mL for the same duration. As a control, cells were incubated only with calcofluor white for 20 min.
For combined treatment, cells were first exposed to calcofluor white (2.5 µg/mL) for 5 min, followed by the addition of X1-NCR247C (0.39 µM), and the incubation continued for 15 additional minutes. Following treatment, cells were washed once with sterile distilled water to remove residual peptide and dye. Serial 10-, 100-, 1000-, and 10,000-fold dilutions were prepared, and 50 µL from each dilution was plated onto solid YPD medium in triplicate. After 48 h of incubation at 30 °C, colony-forming units were counted to determine cell viability under each condition.

| Structure (SMILES) | reduction in macrophage viability [1] | fungistatic or fungicide mode of action [2] | calcein leakage / membrane permeability disruption [3] | MIC [4] | also measured |
| --- | --- | --- | --- | --- | --- |
| CC[C@H](C)[C@H](NC(=O)[C@H](CS)NC(=O)CNC(=O)[C@H](CC(N)=O)NC(=O)[C@@H](N)CCCNC(=N)N)C(=O)N[C@H](C(=O)N[C@@H](CC(=O)O)C(=O)N1CCC[C@H]1C(=O)N[C@@H](CCCNC(=N)N)C(=O)N[C@@H](CS)C(=O)N1CCC[C@H]1C(=O)N[C@@H](Cc1ccc(O)cc1)C(=O)N[C@@H](CCC(N)=O)C(=O)N[C@@H](CCC(N)=O)C(=O)N[C@@H](CS)C(=O)N[C@@H](CCCNC(=N)N)C(=O)N[C@@H](CCCNC(=N)N)C(=O)N1CCC[C@H]1C(=O)N[C@@H](CC(C)C)C(=O)N[C@@H](Cc1ccc(O)cc1)C(=O)N[C@@H](CS)C(=O)N[C@@H](CCCNC(=N)N)C(=O)N[C@@H](CCCNC(=N)N)C(=O)N[C@@H](CCCNC(=N)N)C(N)=O)C(C)C [NCR247] (H-RNGCIVDPRCPYQQCRRPLYCRRR-NH2; N-terminus assumed) | 25% | fungicidal effect | – | – | – |
| CC[C@H](C)[C@H](NC(=O)[C@@H]1CCCN1C(=O)[C@@H](NC(=O)[C@H](CS)NC(=O)[C@H](Cc1ccc(O)cc1)NC(=O)[C@H](CO)NC(=O)[C@H](CCCCN)NC(=O)[C@H](CCCNC(=N)N)NC(=O)[C@H](CS)NC(=O)[C@H](CCCNC(=N)N)NC(=O)[C@@H](NC(=O)[C@H](CC(N)=O)NC(=O)[C@H](C)NC(=O)[C@H](CCCNC(=N)N)NC(=O)[C@H](CCCNC(=N)N)NC(=O)[C@H](CC(C)C)NC(=O)[C@@H](N)CCCCN)C(C)C)C(C)C)C(N)=O [NCR335C17–33] (H-KLRRANVRCRKSYCVPI-NH2; N-terminus assumed) | 15% | fungicidal effect | highest calcein leakage | – | – |
| CC[C@H](C)[C@H](NC(=O)[C@H](CCCCN)NC(=O)[C@H](CCCCN)NC(=O)[C@H](C)NC(=O)[C@H](CC(C)C)NC(=O)[C@H](C)NC(=O)[C@H](C)NC(=O)[C@H](CC(C)C)NC(=O)[C@H](C)NC(=O)[C@H](CCCCN)NC(=O)[C@H](CC(C)C)NC(=O)[C@H](CC(N)=O)NC(=O)[C@@H](NC(=O)[C@H](CCCCN)NC(=O)CNC(=O)[C@H](CC(C)C)NC(=O)[C@H](CC(C)C)NC(=O)[C@H](Cc1ccc(O)cc1)NC(=O)CNC(=O)[C@H](C)N)[C@@H](C)CC)C(=O)N[C@@H](CC(C)C)C(N)=O [TP10, reference compound] | – | – | – | 12.5 µM | macrophage viability compared to untreated control ([1]; p ≤ 0.01): significantly reduced macrophage viability |
| CC[C@H](C)[C@H](NC(=O)[C@H](CCCCN)NC(=O)[C@H](CCCCN)NC(=O)[C@H](C)NC(=O)[C@H](CC(C)C)NC(=O)[C@H](C)NC(=O)[C@H](C)NC(=O)[C@H](CC(C)C)NC(=O)[C@H](C)NC(=O)[C@@H](N)CCCCN)C(=O)N[C@@H](CC(C)C)C(=O)N[C@@H](CCC(N)=O)C(=O)N[C@@H](CCC(N)=O)C(=O)N[C@@H](CS)C(=O)N[C@@H](CCCNC(=N)N)C(=O)N[C@@H](CCCNC(=N)N)C(=O)N1CCC[C@H]1C(=O)N[C@@H](CC(C)C)C(=O)N[C@@H](Cc1ccc(O)cc1)C(=O)N[C@@H](CS)C(=O)N[C@@H](CCCNC(=N)N)C(=O)N[C@@H](CCCNC(=N)N)C(=O)N[C@@H](CCCNC(=N)N)C(N)=O [X2-NCR247C] (H-KALAALAKKILQQCRRPLYCRRR-NH2; N-terminus assumed) | – | fungicidal effect | highest calcein leakage | 0.78 µM | MIC [5]: 3.12 µM (≈ 8.6 µg/mL) |
| O=S(=O)(O)c1cc(Nc2nc(Nc3ccccc3)nc(N(CCO)CCO)n2)ccc1/C=C/c1ccc(Nc2nc(Nc3ccccc3)nc(N(CCO)CCO)n2)cc1S(=O)(=O)O [calcofluor white, reference compound] | – | – | – | – | effect on CFU counts (C. neoformans cells): did not reduce CFU counts |
